Entries after “also recorded” stand apart in the source; their conditions may differ.
Experiments:
[1] = system: CerCa 2 primary cervical tumor cells (HPV 16); assay: Sphere formation assay, primary cervical tumor cells CerCa 2; assay type: cell-based, human; settings: incubated with 45 μM cisplatin
Experimental: (§1) The ability of cervical cells from the SiHa cervical cancer cell line (transformed with Human Papillomavirus 16 or HPV 16) and from primary cultures of human uterine cervical cancer cells derived from patients to form spheroid bodies following treatment with antisense oligonucleotides directed to antisense non-coding chimeric mitochondrial RNA (ASncmtRNA) was determined. The assay utilized measured the numbers of spheroid bodies, also referred to herein as spheres, which are formed by cancer stem cells.
(§2) The experimental procedure and assay utilized herein measured the effect of antisense oligonucleotides that were targeted to ASncmtRNA on the number of spheres formed by cervical cancer cells (FIG. 6). Sphere formation was measured in the SiHa cervical cancer cell line and primary cultures of human cervical cancer cells derived from patients (CerCa). […]
(§3) About 1×10^5 cells resuspended in MEGM™ medium supplemented with 20 ng/ml of hEGF, hydrocortisone, insulin, GA-1000 (Lonza), 0.5×B-27 without vitamin A (Invitrogen), 20 ng/ml of FGFb (Invitrogen) without CFS were seeded on ultra-low adherence plates (Corning). Ten days later, the spheres were counted under phase microscopy, collected and filtered using a nylon mesh of 70 μm to discard single cells. […]
(§4) The different primary cultures were analyzed with the PGMY09/11 Linear Array (Roche). […]

[2] = system: CerCa 1 primary cervical tumor cells (HPV 16); assay: Sphere formation assay, primary cervical tumor cells CerCa 1; assay type: cell-based, human; settings: incubated with 45 μM cisplatin
Experimental: as §1, §2, §3, §4

[3] = system: CerCa 3 primary cervical tumor cells (HPV 45); assay: Sphere formation assay, primary cervical tumor cells CerCa 3; assay type: cell-based, human; settings: incubated with 45 μM cisplatin
Experimental: as §1, §2, §3, §4

[4] = system: SiHa cervical cancer cell line (HPV 16); assay: Sphere formation assay, SiHa cervical cancer cell line; assay type: cell-based, human; settings: incubated with 45 μM cisplatin
Experimental: as §1
as §2, with “(CerCa). CerCa 1, CerCa 2 and CerCa 3 (transformed with Human Papillomavirus 45) were obtained from patient biopsies.” for “(CerCa).”
as §3

RENCA cells [5] = assay: Relapse and survival after surgical removal of RENCA kidney tumors, single post-surgery treatment (Example 4); assay type: in vivo, mice; settings: in liposomes
Experimental: 100,000 RENCA cells (ATCC® CRL-2947™ Mus musculus kidney renal adenocarcina) were injected subcutaneously at day 0. […] The animals were sutured and […] injected at the site of the removed tumor with 100 μg of ASO 154 (FIG. 11, squares) or ASO 1560S (FIG. 11, triangles), both formulated in liposomes, in 250 μl. No further treatment was given.

[6] = system: MB49 cells (mouse bladder cancer cells); assay: Tumors and survival after surgical removal of MB49 bladder carcinoma tumors (Example 7); assay type: in vivo, mice
Experimental: Twelve mice were injected subcutaneously with a 100,000 MB49 cells (mouse bladder cancer cells). After 15 days mice had tumors of an average diameter of 800 mm3. Tumors were surgically removed (day 0) and a bolus of 200 μl containing 100 μg of ASO 154 (control) or ASO 1560S (active drug) was injected at the site of the surgery. Three days post-surgery mice were divided in 2 groups and treated intraperitoneally or intravenously with 100 μl injections containing ASO 154 (control group) or ASO 1560S (treated group) as indicated in FIG. 14. Only one mouse treated intraperitoneally with ASO 1560S developed a tumor.

B16F10 melanoma cells [7] = assay: Relapse and metastasis after surgical removal of B16F10 melanoma tumors (Example 3); assay type: in vivo, C57BL/6 mice
Experimental: One common clinical protocol for melanoma includes surgical resection follow by systemic administration of drugs. Similar protocols are used in the practice of other tumors. In the melanoma model presented in this representative example, B16F10 melanoma cells (100,000 cells in 200 μl of saline) were injected subcutaneously on the back of C57BL/6 mice. About 11 to 12 days post-cell injection, tumors between 700 to 1.000 mm3 developed (a 1,000 mm3 tumor in mice is considered equivalent to a 3,000 cc3 tumor in humans). […] Tumors were surgically resected under anesthesia and the wound washed once with 250 μl containing 100 μg of ASO 1560S or ASO 154. After surgical suture, a bolus of 200 μl saline containing 100 μg of ASO 154 or ASO 1560S was applied into the cavity left by the tumor. Three days post-surgery, mice received on alternative days, 3 intravenous (FIG. 9; 1st, 3rd, 5th arrows on timeline) or 3 intraperitoneal (FIG. 9; 2nd, 4th, 6th arrows on timeline) injections of 250 μl saline containing 100 μg of either ASO 1560S or ASO 154. Tumor growth was measured twice a week with a caliper.
Relapse of tumor growth in mice treated with ASO 154 was observed about 3 days post-surgery and tumor volume of about 1,500 mm3 was reached on about the 25th day post-cell injection (FIG. 9). These mice were euthanized under anesthesia, and the tumor and other organs were fixed and saved for further studies. […] Livers and lungs were analyzed for the presence of metastatic nodules.

B16F10 melanoma cells [8] = assay: Relapse and survival after surgical removal of B16F10 melanoma tumors, intraperitoneal treatment (Example 6); assay type: in vivo, mice; settings: 25 and 50 μg intraperitoneal injections post-surgery
RENCA cells [9] = assay: Relapse and survival after surgical removal of RENCA kidney tumors, intraperitoneal/intravenous treatment (Example 5); assay type: in vivo, mice; settings: day 60; 25 μg ip and iv injections in liposomes
Experimental: 100,000 RENCA cells (ATCC® CRL-2947™ Mus musculus kidney renal adenocarcina) were injected subcutaneously on day 0 in 8 mice. […] Tumors of all animals were removed by surgery and divided in 2 groups. […] Post-suture, a bolus of 250 μl was intraperiotoneally injected in the place of where tumor had grown: the control group was injected with ASO 154 and the treated group with ASO 1560S. On days 13, 15, 17 and 19, intraperitoneal injections of 25 μg ASO 154 (FIG. 12, circles) or 25 μg ASO 1560S (FIG. 12, squares) formulated in liposomes were injected in a volume of 250 μl. On days 14, 16 and 18, the mice were injected intravenously with the same protocol. On day 22, all control animals had tumors larger than 1,200 mm3 and were sacrificed. On day 60, all animals treated with ASO 1560S had no tumors and were still alive (FIG. 12).

[10] = FIG. 14, intraperitoneal or intravenous administration
[11] = treated intravenously after 100 μg bolus at surgery site

| Molecule | Sphere formation [1] | Sphere formation [2] | Sphere formation [3] | Sphere formation [4] | Survival (RENCA cells [5]; day 61) | Tumors / tumor relapse after surgery (RENCA cells [5]; up to day 61, 100 μg wash and 100 μg injection) | Survival [6, 10] | Tumors [6, 10] | Number of mice that developed a tumor ([6]; treated intraperitoneally after 100 μg bolus at surgery site) | Survival [6, 11] | Tumors [6, 11] | Relapse of tumor growth after surgery (B16F10 melanoma cells [7]; 100 μg wound wash, 100 μg bolus, then 3 iv and 3 ip injections of 100 μg) | Detectable tumors (B16F10 melanoma cells [7]; 130 days post-cell injection) | Metastatic nodules in lungs and liver (B16F10 melanoma cells [7]; organs collected at euthanasia) | Survival (B16F10 melanoma cells [8]) | Tumor relapse after surgery (B16F10 melanoma cells [8]) | Survival (RENCA cells [9]) | Tumors / relapse after surgery (RENCA cells [9]) |
| --- | --- | --- | --- | --- | --- | --- | --- | --- | --- | --- | --- | --- | --- | --- | --- | --- | --- | --- |
| N.N.[Cl][Pt][Cl] [cisplatin] | abolished sphere formation | abolished sphere formation | no effect; also recorded: resistant to cisplatin treatment | abolished sphere formation | – | – | – | – | – | – | – | – | – | – | – | – | – | – |
| ASO 1560S: antisense oligonucleotide targeted to the mouse ASncmtRNAs (SEQ ID NO: 198) (antisense CACCCTCTAACCTAGAGAAG; all phosphorothioate, sugars by position and methylation of C not given here) | – | – | – | – | still alive; also recorded: complete survival | no tumors; also recorded: absence of tumor relapse | complete survival | absence of tumors | one | full survival | remained without tumors | No relapse; also recorded: prevented or suppressed cancer relapse; also recorded: absence of tumor relapse | without the presence of detectable tumors | lacked the presence of metastatic nodules; also recorded: absence of metastatic nodules | complete survival | absence of the intradermal melanoma tumor relapse | still alive | no tumors; also recorded: absence of relapse |

Reference: patent US10457943B2, “Antisense oligonucleotides for treatment of cancer stem cells” (Andes Biotechnologies Global, Inc., priority 2013, dated 2019)
